Data from patent US20250325543A1, “EGFR TKIs FOR USE IN THE TREATMENT OF NON-SMALL LUNG CANCER” (ASTRAZENECA AB, priority 2020, published 2025).

Key:
[1] = system: patients with advanced mutation-positive EGFR (Ex19del or L858R) NSCLC; conditions: cited from earlier work
[2] = system: stage IB-IIIA EGFRm NSCLC patients; experiment: ADAURA phase 3 double-blind, randomized, placebo-controlled study of adjuvant AZD9291 after complete tumour resection; type: in vivo, human; conditions: for DFS HR (95% CI) / reduction in the risk of disease recurrence or death: osimertinib vs placebo
Method: Adjuvant chemotherapy should have consisted of a platinum based doublet given for a maximum of 4 cycles.
Patients were randomised 1:1, to receive either AZD9291 or placebo. […] Patients were randomised within 10 weeks following complete surgical resection if adjuvant chemotherapy was not administered, within 26 weeks following surgery if adjuvant chemotherapy was administered.
Accounting for patients who are found to have wild type EGFR, sample attrition and 10% screen fail rate for other reasons, it was estimated that approximately 3200 patients would be screened to randomize approximately 700 patients. Approximately 60% of patients were recruited from Asia and 40% from non-Asian countries. The proportion of patients randomized with stage 1B cancer was approximately 30% and the proportion of patients randomized with stage II-IIIA cancer was approximately 70%. Patients were stratified at randomization by stage (IB vs II vs IIIA), mutation type (Ex19Del/L858R either alone or in combination with other EGFR mutations) as confirmed by a central laboratory using a tissue based test, and race (Asian/non-Asian).
Patients undergo regular CT scan (chest and abdomen including liver and adrenal glands) with additional anatomy imaging, as indicated by signs and symptoms of the patient, for disease recurrence. Disease free survival (DFS) shall be measured from the date of randomization until date of disease recurrence or death (from any cause) in the absence of recurrence by investigational site assessment.
Male and female patients aged 18 years and over (patients from Japan/Taiwan aged at least 20 years) with histologically confirmed diagnosis of primary non-squamous non-small cell carcinoma of the lung, with complete surgical resection of the primary tumour, and who were classified post-operatively as stage IB, II or IIIA on the basis of pathologic criteria were eligible for this study (stage IB patients were excluded in Japan). Recruitment of patients with stage IB disease was closed when approximately 210 (30%) had been randomized and recruitment of patients with stage II-IIIA disease was closed when approximately […] (70%) had been randomized. Patients were confirmed to have a tumour that harbours one of the most common EGFR mutations known to be associated with EGFR-TKI sensitivity (Ex19Del; L858R) either alone or in combination with other EGFR mutations as confirmed by a central test.
Treatment with AZD9291 (80 mg once daily) or placebo commenced following randomization. Patients will continue on randomised treatment until recurrence of disease, treatment discontinuation criterion is met or treatment is completed.
AZD9291 (80 mg orally, once daily) or matching placebo, in accordance with the randomization schedule, was administered.
Disease-free survival is the primary endpoint in this study and is defined as the time from the date of randomization until the date of disease recurrence or death from any cause in the absence of disease recurrence. Disease recurrence is defined as evidence of disease recurrence on CT or MRI scan and/or pathological disease on biopsy by investigational site assessment. The primary population is the stage II/IIIA patients.
DFS rate at 2, 3, 4 and 5 years is defined as the proportion of patients alive and disease free at 2, 3, 4 and 5 years, respectively, estimated from Kaplan Meier plots of the primary endpoint of DFS at the time of the primary analysis.
DFS in the subset of patients with stage II-IIIA cancer will be analysed using a log rank test stratified by stage (II, IIIA), mutation type (Ex19Del, L858R either alone or in combination with other EGFR mutations) and race (Asian, Non-Asian) for the generation of the p-value and using the Breslow approach for handling ties.

[3] = patients with CNS metastases on a baseline brain scan, vs standard EGFR-TKIs
[4] = Stage IB/II/IIIA (overall population)
[5] = Stage IB/II/IIIA (overall population), listed as osimertinib
[6] = Stage II/IIIA patient population, immature OS (5% maturity)

SMILES: C=CC(=O)Nc1cc(Nc2nccc(-c3cn(C)c4ccccc34)n2)c(OC)cc1N(C)CCN(C)C [Osimertinib, N-(2-{2-dimethylaminoethyl-methylamino}-4-methoxy-5-{[4-(1-methylindol-3-yl)pyrimidin-2-yl]amino}phenyl) prop-2-enamide]
- median overall survival ([1]; first-line therapy): 38.6 months
- median progression free survival (PFS) ([1]; first-line therapy): 18.9 months
- events of CNS progression, % patients ([1]; irrespective of known or treated CNS metastases at trial entry): 6%
- hazard ratio for death ([1]; osimertinib vs comparator group): 0.80
- PFS hazard ratio (HR) ([1]; osimertinib vs erlotinib or gefitinib): 0.46
- median CNS PFS ([1]; patients with CNS metastases on a baseline brain scan): not reached
- CNS PFS HR [1, 3]: 0.48
- reduction in the risk of CNS progression [1, 3]: 52%
- 2 year DFS rate, % (95% CI) ([2]; Adjuvant chemotherapy received): 88.3%
- 2 year DFS rate, % (95% CI) ([2]; No adjuvant chemotherapy): 89.2%
- 2 year DFS rate, % (95% CI) ([2]; Stage IB): 87 (77, 93) %
- Median DFS, months (95% CI) ([2]; Stage IB): NR (NC, NC)
- 2 year DFS rate, % (95% CI) [2, 4]: 88.8%
- 2 year DFS rate, % (95% CI) [2, 5]: 89%
- 2 year DFS rate, % (95% CI) ([2]; Stage II): 91 (82, 95)^ %
- Median DFS, months (95% CI) ([2]; Stage II): NR (NC, NC)
- 2 year DFS rate, % (95% CI) ([2]; Stage II-IIIA): 89.5%
- deaths (% of patients) [2, 6]: 3%
- deaths (number of patients) [2, 6]: 8 deaths
- 2 year DFS rate, % (95% CI) ([2]; Stage IIIA): 88 (79, 94)^ %
- Median DFS, months (95% CI) ([2]; Stage IIIA): 38.8 (38.6, NC)^ months
- overall survival (in words) ([2]; immature OS (5% maturity)): trend towards survival favouring osimertinib
- DFS HR (95% CI) ([2]; Stage IB): 0.50 (0.27, 0.94)
- DFS HR (95% CI) [2, 4]: 0.21 (0.16, 0.28);
- DFS HR (95% CI) [2, 5]: 0.21
- DFS HR (95% CI) ([2]; Stage II): 0.17 (0.08, 0.31)
- DFS HR (95% CI) ([2]; Stage II-IIIA): 0.17 (0.12, 0.23);
- DFS HR (95% CI) ([2]; Stage II-IIIA, listed as osimertinib): 0.17 (0.12, 0.23)
- DFS HR (95% CI) ([2]; Stage IIIA): 0.12 (0.07, 0.20)
- DFS HR (95% CI) ([2]; adjuvant chemotherapy received): 0.17
- DFS HR (95% CI) ([2]; no adjuvant chemotherapy): 0.17
- reduction in the risk of disease recurrence or death ([2]; overall population): 79%
- reduction in the risk of disease recurrence or death ([2]; primary population of stage II/IIIA patients): 83%
- improvement in DFS (in words) ([2]; regardless of whether patients received prior adjuvant chemotherapy): consistent improvement in DFS
- improvement in disease free survival (DFS) (in words) ([2]; stage IB/II/IIIA EGFRm NSCLC, adjuvant setting): statistically significant and clinically meaningful improvement
